Results taken from US10711002B2, “Purine compounds and method for the treatment of cancer” (THE ROYAL INSTITUTION FOR THE ADVANCEMENT OF …, priority 2016, dated 2020).

Assay: Pilot toxicity study
Format: in vivo, mice
Details: doses even superior to 30 mg/kg, PO, 3 times a week, 4 cycles
Excerpt: In vivo studies were approved by McGill Animal Care Committee. Cells growing in exponential phase of growth (1×10^6 cells/mouse) were transplanted into the mammary fat pad of female SCID (MDA231/M) or Balb/c (4T1) mice. Mia-PaCa cells and RENCA cells were implanted subcutaneously in SCID or Balb/c mice respectively. When primary tumors became palpable mice were randomized and blindly assigned treatment groups. Treatment was given PO for 4 cycles (3 times a week: day 1, day 3, day 5) (n=8-10 mice per condition). Control mice received the vehicle alone (1% DMSO in physiologic solution). […] Tumor size was measured using a caliper. At the study termination (60-90 days) primary tumors were excised and weighted. The lungs were fixed in 10% Bouin's fixative and lung surface metastases were counted using a stereomicroscope.

For `O=c1c2ccccc2[se]n1-c1nc(N[C@H]2CC[Se]C2)c2nc[nH]c2n1` [Compound 4], the body weight loss was “no body weight loss” and the toxicity was “no apparent toxicity”.
